Reference: publication PMC12376128, “In vitro and In Vivo Drug Metabolism Analysis of BPI-460372 - A Covalent TEAD1/3/4 Inhibitor” (Current Drug Metabolism, 2025)

Assays:
[1] = tested on: dog hepatocytes; test: Metabolism and metabolite formation in hepatocytes; assay type: in vitro ADME, beagle dog; conditions: beagle dog hepatocytes, 10 µM BPI-460372, 4 h incubation
From the text: (§1) All the samples were duplicates.

[2] = tested on: TEAD palmitoylation; test: Inhibition of TEAD palmitoylation (in vitro); assay type: biochemical; conditions: in vitro studies
[3] = Metabolite identification in dog plasma; assay type: in vivo, beagle dogs; conditions: oral 8 mg/kg BPI-460372, average of male and female pooled samples
Method: (§2) The plasma samples were acquired from SD rats (n=6, 3 female and 3 male) and beagle dogs (n=6, 3 female and 3 male) after administration of 12 mg/kg and 8 mg/kg of BPI-460372, respectively. The rat urine, feces, and bile samples were acquired in SD rats after administration of 6 mg/kg of BPI-460372.
(§3) Equal volume from each rat was pooled together to get 1 male and 1 female 0-24 h plasma samples. An equal percentage by volume of individual urine sample (0-8, 8-24, and 24-48 h) from 3 female and 3 male rats was pooled by time interval across rats, respectively, resulting in two pooled urine samples (1 male and 1 female). An equal percentage by weight of individual feces samples (0-8, 8-24, and 24-48 h) was pooled by time interval across female and male rats, resulting in two pooled fecal samples. An equal percentage by volume of individual bile samples (0-4, 4-8, 8-24, and 24-48 h) was pooled by time interval across female and male rats, resulting in two pooled bile samples. […] Equal volumes from 3 female and 3 male rats were pooled together to get two 0-48 h plasma samples. For blank samples of plasma, urine, and bile, equal volume was pooled across subjects. For a blank sample of feces, equal weight was pooled across rats.
(§4) The pooled plasma, feces, and bile samples were extracted by adding 3-fold volume of acetonitrile, and the mixture was vortexed (1 min) and sonicated (1 min) before centrifugation (7220 g, 5 min). The pooled urine samples were centrifuged (7220 g, 5 min). Then the supernatant was transferred into a clean tube and evaporated to dryness under the nitrogen stream. The residues were redissolved with an appropriate volume of acetonitrile/water (20: 80, v: v). After centrifugation, the redissolved solution was transferred into an HPLC vial for UHPLC-Orbitrap-HRMS (15000 g, 10 min, 4°C).

[4] = tested on: human hepatocytes; test: Metabolism and metabolite formation in hepatocytes; conditions: human hepatocytes, 10 µM BPI-460372, 4 h incubation
[5] = tested on: rat hepatocytes; test: Metabolism and metabolite formation in hepatocytes; assay type: in vitro ADME, SD rat; conditions: SD rat hepatocytes, 10 µM BPI-460372, 4 h incubation
From the text: as §1

[6] = Metabolite identification in rat plasma, urine, feces and bile; assay type: in vivo, SD rats; conditions: for Relative abundance of MS peak areas, Rat Bile 0-48 h / Relative abundance of MS peak areas, Rat Feces 0-48 h / Relative abundance of MS peak areas, Rat Urine 0-48 h: oral 6 mg/kg BPI-460372, average of male and female pooled samples; for Relative abundance of MS peak areas, Rat Plasma 0-24 h: oral 12 mg/kg BPI-460372, average of male and female pooled samples
Method: as §2, §3, §4

[7] = tested on: TEAD proteins; test: Covalent binding to TEAD proteins (in vitro); conditions: in vitro studies
[8] = tested on: cysteine S-conjugate β-lyase; test: Effect of cysteine S-conjugate β-lyase inhibitor AOAA on the metabolism of BPI-460372 (rat urine); conditions: for Area ratio in rat urine, mean (%CV): 20 mg/kg BPI-460372 + 100 mg/kg AOAA, once daily 21 days, urine 0-48 h on day 21; for Change of area ratio in rat urine on coadministration with AOAA: 20 mg/kg BPI-460372 with versus without 100 mg/kg AOAA
[9] = tested on: monkey hepatocytes; test: Metabolism and metabolite formation in hepatocytes; assay type: in vitro ADME, cynomolgus monkey; conditions: cynomolgus monkey hepatocytes, 10 µM BPI-460372, 4 h incubation
From the text: as §1

[10] = tested on: mouse hepatocytes; test: Metabolism and metabolite formation in hepatocytes; assay type: in vitro ADME, ICR mouse; conditions: ICR mouse hepatocytes, 10 µM BPI-460372, 4 h incubation
From the text: as §1

[11] = molecular target: T1, CYP2C9 (Homo sapiens, UniProt P11712); test: Metabolic stability in HLMs with or without specific CYP inhibitor (sulfaphenazole); assay type: in vitro ADME; parameters: HLMs (1 mg protein·mL^-1); tissue BioIVT; host or cells: pooled human liver microsomes; conditions: 1 µM, pH 7.4
Method: (§5) Before starting the experiments, the HLMs were thawed gently on ice. Metabolic stability incubations were performed at 37 °C. The incubations contained 100 mM phosphate buffer saline (PBS, pH 7.4), HLMs (1 mg protein·mL^-1), dimethyl sulfoxide (DMSO, blank control) or a selective CYP inhibitor, and BPI-460372 or positive control substrates (final incubation concentration, 1 μM). The incubation process started with the addition of NADPH (1 mM final concentration) after a 5-minute preincubation period. The chemical inhibitors were as follows: a-naphthoflavone (2 µM) for CYP1A2, ticlopidine (20 µM) for 2B6, quercetin (20 µM) for CYP2C8, sulfaphenazole (20 µM) for CYP2C9, ticlopidine (200 µM) for CYP2C19, quinidine (20 µM) for CYP2D6, and ketoconazole (20 µM) for CYP3A [9]. Aliquots were maintained in acetonitrile containing internal standard (IS) at various time points, such as 0 min, 5 min, 10 min, 20 min, 30 min, and 60 min. All incubations were performed in triplicate, and the concentration in the supernatant was determined by liquid chromatography-tandem mass spectrometry (LC-MS/MS).
(§6) The elimination rate constant k (min^-1) was obtained by linear regression from the natural logarithm of the […] of the parent drug and the incubation time. The inhibition rate was calculated using equation 1 [10]: […]

[12] = molecular target: T1, CYP2C9; test: Metabolic stability in recombinant human CYP isoenzymes; assay type: in vitro ADME; parameters: purchased Cypex Ltd. (Dundee, UK); conditions: rCYP2C9, 1 µM
Method: (§7) To identify the specific isoform that participates in the metabolism of BPI-460372, 1 µM BPI-460372 or positive control substrates were mixed with recombinant human CYP1A2, 2B6, 2C8, 2C9, 2C19, 2D6 or 3A4 (100 pmol P450·mL^-1), and the reaction was started by the addition of NADPH (1 mM final concentration) after 5-minute preincubation at 37°C. Aliquots were maintained in acetonitrile containing IS at different time points at 0 min, 5 min, 10 min, 20 min, 30 min, and 60 min. All incubations were performed in triplicate, and the concentration of the supernatant was determined by LC-MS/MS.
(§8) A substrate depletion approach was employed to determine the intrinsic clearance (CLint (rCYPj)) for each isoform. The contribution of each isoform was estimated using equations 2 and 3. CYPj abundance was evaluated as the abundance (CYPj) of each isoform in HLMs (pmol/mg protein).

[13] = molecular target: T2, CYP2D6 (Homo sapiens, UniProt P10635); test: Metabolic stability in HLMs with or without specific CYP inhibitor (quinidine); assay type: in vitro ADME; parameters: HLMs (1 mg protein·mL^-1); tissue BioIVT; host or cells: pooled human liver microsomes; conditions: HLMs 1 mg protein/mL, substrate 1 μM, quinidine 20 µM
Method: as §5, §6

[14] = molecular target: T2, CYP2D6; test: Metabolic stability in recombinant human CYP isoenzymes; assay type: in vitro ADME; parameters: purchased Cypex Ltd. (Dundee, UK); conditions: in 5 min
Method: as §7, §8

[15] = molecular target: T3, CYP1A2 (Homo sapiens, UniProt P05177); test: Metabolic stability in HLMs with or without specific CYP inhibitor (α-naphthoflavone); assay type: in vitro ADME; parameters: HLMs (1 mg protein·mL^-1); tissue BioIVT; host or cells: pooled human liver microsomes; conditions: HLMs 1 mg protein/mL, substrate 1 μM, α-naphthoflavone 2 µM
T3 sequence (P05177 1-516): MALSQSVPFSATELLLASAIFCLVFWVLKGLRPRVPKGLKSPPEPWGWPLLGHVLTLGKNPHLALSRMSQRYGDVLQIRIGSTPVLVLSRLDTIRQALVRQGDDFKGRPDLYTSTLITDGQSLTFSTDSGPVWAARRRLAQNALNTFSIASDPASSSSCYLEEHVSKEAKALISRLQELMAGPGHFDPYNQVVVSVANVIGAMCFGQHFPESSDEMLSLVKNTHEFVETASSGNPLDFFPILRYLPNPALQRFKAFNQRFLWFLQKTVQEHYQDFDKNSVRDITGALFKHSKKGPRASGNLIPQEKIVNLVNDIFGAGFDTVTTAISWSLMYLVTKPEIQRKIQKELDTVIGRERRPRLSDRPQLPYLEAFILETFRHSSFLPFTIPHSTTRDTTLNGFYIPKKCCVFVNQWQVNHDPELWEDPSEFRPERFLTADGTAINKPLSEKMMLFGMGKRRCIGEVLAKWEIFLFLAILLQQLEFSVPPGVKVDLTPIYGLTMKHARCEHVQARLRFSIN
Method: as §5, §6

[16] = tested on: CYP3A4; test: Metabolic stability in HLMs with or without specific CYP inhibitor (ketoconazole); assay type: in vitro ADME, human; conditions: HLMs 1 mg protein/mL, substrate 1 μM, ketoconazole 20 µM
Method: as §5, §6

[17] = molecular target: T4, recombinant human CYP3A4 (Homo sapiens, UniProt P08684); test: Metabolic stability in recombinant human CYP isoenzymes; assay type: in vitro ADME; conditions: rCYP3A4, 1 µM
T4 construct: purchased Cypex Ltd. (Dundee, UK)
Method: as §7, §8

[18] = tested on: CYP2C8; test: Metabolic stability in HLMs with or without specific CYP inhibitor (quercetin); assay type: in vitro ADME, human; conditions: HLMs 1 mg protein/mL, substrate 1 μM, quercetin 20 µM
Method: as §5, §6

T2 sequence (P10635 whole entry): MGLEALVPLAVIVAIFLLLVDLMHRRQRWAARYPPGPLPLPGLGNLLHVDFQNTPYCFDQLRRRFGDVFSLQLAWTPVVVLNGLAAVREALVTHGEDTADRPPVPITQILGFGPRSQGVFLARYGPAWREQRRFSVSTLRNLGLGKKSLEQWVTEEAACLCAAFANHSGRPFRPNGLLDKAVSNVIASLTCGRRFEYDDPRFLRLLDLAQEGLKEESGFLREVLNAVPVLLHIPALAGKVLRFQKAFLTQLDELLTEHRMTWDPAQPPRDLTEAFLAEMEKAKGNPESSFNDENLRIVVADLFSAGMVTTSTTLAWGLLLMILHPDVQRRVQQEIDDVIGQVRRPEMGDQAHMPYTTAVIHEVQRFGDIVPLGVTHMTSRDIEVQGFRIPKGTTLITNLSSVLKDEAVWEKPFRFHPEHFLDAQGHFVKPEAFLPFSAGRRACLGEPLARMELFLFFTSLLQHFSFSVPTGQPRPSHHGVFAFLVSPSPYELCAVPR
T1 sequence (P11712 whole entry): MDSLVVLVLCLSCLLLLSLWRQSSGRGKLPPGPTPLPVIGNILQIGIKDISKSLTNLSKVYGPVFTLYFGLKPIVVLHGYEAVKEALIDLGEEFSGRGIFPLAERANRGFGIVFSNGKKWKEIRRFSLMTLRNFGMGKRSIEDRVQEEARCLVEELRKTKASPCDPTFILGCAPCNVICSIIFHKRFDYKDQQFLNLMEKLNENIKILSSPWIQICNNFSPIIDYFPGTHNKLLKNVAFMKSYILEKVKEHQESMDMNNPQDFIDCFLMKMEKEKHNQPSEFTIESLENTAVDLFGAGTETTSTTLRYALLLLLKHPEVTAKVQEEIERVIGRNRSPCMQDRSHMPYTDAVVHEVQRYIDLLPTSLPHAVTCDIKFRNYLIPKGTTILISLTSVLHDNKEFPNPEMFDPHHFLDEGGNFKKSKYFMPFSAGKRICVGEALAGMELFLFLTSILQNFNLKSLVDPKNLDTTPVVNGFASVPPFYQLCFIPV
T4 sequence (P08684 whole entry): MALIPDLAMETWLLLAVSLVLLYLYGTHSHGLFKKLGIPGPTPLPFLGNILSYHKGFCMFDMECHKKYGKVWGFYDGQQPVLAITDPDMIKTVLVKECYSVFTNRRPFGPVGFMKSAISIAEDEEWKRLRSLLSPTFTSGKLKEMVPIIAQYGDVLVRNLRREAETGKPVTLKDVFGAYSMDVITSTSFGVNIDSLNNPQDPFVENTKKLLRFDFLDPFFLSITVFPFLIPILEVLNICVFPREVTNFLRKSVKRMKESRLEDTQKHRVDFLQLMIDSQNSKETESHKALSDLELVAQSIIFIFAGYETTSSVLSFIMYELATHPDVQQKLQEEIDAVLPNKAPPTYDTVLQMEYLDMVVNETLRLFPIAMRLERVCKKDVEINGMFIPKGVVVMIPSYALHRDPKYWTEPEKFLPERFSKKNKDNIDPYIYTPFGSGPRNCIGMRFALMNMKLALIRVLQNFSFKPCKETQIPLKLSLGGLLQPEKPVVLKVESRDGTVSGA

Row | SMILES | UV (314 nm) Peak Areas Relative Abundance [1] | Relative abundance of MS peak areas, Dog Plasma 0-48 h [3] [%] | UV (314 nm) Peak Areas Relative Abundance [4] | UV (314 nm) Peak Areas Relative Abundance [5] | Relative abundance of MS peak areas, Rat Bile 0-48 h [6] [%] | Relative abundance of MS peak areas, Rat Feces 0-48 h [6] [%] | Relative abundance of MS peak areas, Rat Urine 0-48 h [6] [%] | Relative abundance of MS peak areas, Rat Plasma 0-24 h [6] [%] | Area ratio in rat urine, mean (%CV) [8] | UV (314 nm) Peak Areas Relative Abundance [9] [%] | UV (314 nm) Peak Areas Relative Abundance [10] | other results
1 | O=C(C(O)CO)N1CC(n2c(=O)n(-c3ccc(C(F)(F)F)cc3)c3nccnc32)C1 (stereo not drawn) [M423 (BPI-460456)] | + | 40.81 | 2.36% | + | 0.58 | 9.07 | 17.63 | 2.71 | 19.0 (57) | 2.01 | + | Activity: inhibition of TEAD palmitoylation [2]: inactive; Covalent binding to TEAD proteins [7]: do not covalently bind
2 | NC(CSCC(F)C(=O)N1CC(n2c(=O)n(-c3ccc(C(F)(F)F)cc3)c3nccnc32)C1)C(=O)O (stereo not drawn) [M528] | 22.65% | 7.65 | 3.01% | 18.4% | 43.88 | 1.61 | 0.69 | 1.53 | 0.12 (37) | 3.01 | 24.76% | Change of area ratio in rat urine on coadministration with AOAA [8]: reduced
3 | O=C(O)Cc1ccccc1Nc1c(Cl)cccc1Cl [Diclofenac, diclofenac, reference compound] | – | – | – | – | – | – | – | – | – | – | – | Inhibition Rate [11]: 98.2%; CLint (rCYPj) [12]: 3.53 µL/min/pmol
4 | CSCC(O)C(=O)N1CC(n2c(=O)n(-c3ccc(C(F)(F)F)cc3)c3nccnc32)C1 (stereo not drawn) [M453] | – | 3.58 | – | – | – | 1.57 | 17.25 | 0.05 | 0.23 (23) | – | – | Change of area ratio in rat urine on coadministration with AOAA [8]: reduced
5 | COc1ccc2c(c1)[C@]13CCCC[C@@H]1[C@H](C2)N(C)CC3 [Dextromethorphan, reference compound] | – | – | – | – | – | – | – | – | – | – | – | Inhibition Rate [13]: 87.1%; Extent of metabolism in recombinant human CYP2D6 [14]: completely metabolized
6 | CCOc1ccc(NC(C)=O)cc1 [Phenacetin, phenacetin, reference compound] | – | – | – | – | – | – | – | – | – | – | – | Inhibition Rate [15]: 79.2%
7 | CC(O)C(=O)N1CC(n2c(=O)n(-c3ccc(C(F)(F)F)cc3)c3nccnc32)C1 (stereo not drawn) [M407 (BPI-460430)] | + | 6.23 | + | 2.75% | 0.72 | 5.94 | 1.02 | 16.39 | – | 3.61 | 1.39% | Activity: inhibition of TEAD palmitoylation [2]: inactive; Covalent binding to TEAD proteins [7]: do not covalently bind
8 | Cc1ncc2n1-c1ccc(Cl)cc1C(c1ccccc1F)=NC2 [Midazolam, midazolam, reference compound] | – | – | – | – | – | – | – | – | – | – | – | Inhibition Rate [16]: 99.7%; CLint (rCYPj) [17]: 1.93 µL/min/pmol
9 | CC(=O)O[C@H]1C(=O)[C@@]2(C)[C@H]([C@H](OC(=O)c3ccccc3)[C@]3(O)C[C@H](OC(=O)[C@H](O)[C@@H](NC(=O)c4ccccc4)c4ccccc4)C(C)=C1C3(C)C)[C@]1(OC(C)=O)CO[C@@H]1C[C@@H]2O [Paclitaxel, reference compound] | – | – | – | – | – | – | – | – | – | – | – | Inhibition Rate [18]: 78.2%
